# Patent US20240424115A1, “LONG-ACTING INTERLEUKIN-15 RECEPTOR AGONISTS AND RELATED IMMUNOTHERAPEUTIC COMPOSITIONS AND METHODS” (Nektar Therapeutics, priority 2017, published 2024)
# pKd: −log10 of the molar value. Entries after “also recorded” stand apart in the source; their conditions may differ. Read-outs that look alike come from different tables or passages of the source.
# Tests used:
# IL-15Rα = IL-15Rα (Homo sapiens, UniProt Q13261); assay: Receptor affinity for IL-15Rα by surface plasmon resonance (BIAcore); assay type: binding
# Experimental: The affinities of IL-15 and exemplary long acting rIL-15 receptor agonists were measured using Surface Plasmon Resonance (“SPR”) using a BIAcore™ SPR system. Briefly, the surface of a Biacore CM5 sensor chip was activated using a 1:1 mixture of NHS: EDC to generate active NHS esters. Goat anti-human Fc antibody was covalently attached to the surface by injecting it for five minutes in 10 mM sodium acetate (pH 4). There were approximately 8000 RU of antibodies bound to the surface. Any remaining NHS ester was then quenched with ethanolamine.
# At the initiation of each injection cycle, IL-15-Rα-Fc was captured on a sensor chip channel by a five-minute injection step in PBSP. Typically, 150-200 RU of receptors were bound on the surface.
# (§1) Long acting rIL-15 receptor agonist test articles were diluted to 10 µM in PBS (containing 0.05% Tween 20 and 0.1 mg/ml BSA). A series of 3-fold dilutions were made and injected onto a sensor chip which was coated with IL-15Rα. The affinities were measured by determining the ka and kd rates separately, and the ratio between kd and ka was used to calculate the Kd values.
# The affinities of exemplary long-acting IL-15 receptor agonists (test articles) for the IL-15 α receptor were measured and compared to IL-15. Affinity was measured by BIAcore using IL-15Rα:Fc captured by immobilized anti-Fc.
# as §1, with “The” for “Long acting rIL-15 receptor agonist”, “μM” for “µM”, “between ka and” for “between”, “kd” for “kd and ka”, “[…]” for “Kd”
# human PBMCs = assay: HuPBMC-pStat5 assay (flow cytometry, lymphocyte subpopulations); assay type: cell-based
# Experimental: The potency of IL-15 or long acting IL-15 R agonists on various human lymphocyte subpopulations was determined by phospho-STAT5 (Y694) dose response assay. Frozen human PBMCs from multiple donors were supplied by AllCells. 1×10^6 cells/100ul were cultured in complete RPMI media for 2 hours and then incubated with the indicated concentrations (10,000ng/ml-0.001ng/ml serial dilutions) of IL-15 or conjugates for 20minutes at 37c. The cells were then fixed (using BD Cytofix) and permeabilized (using 100% pre-chilled methanol) and stained with antibodies for CD3, CD4, CD8, CD4-Tregs (CD4+CD25+Foxp3+), CD56 and phosphorylated STAT5 (Y694) before analysis by flow cytometry. Concentration-response relationships were used to calculate the EC50 values.
# Assessment of in-vitro activity of exemplary long-acting IL-15 receptor agonists (e.g., Conjugates 1, 3 and 5) was carried out by investigating signaling in NK cell subsets of human PBMCs as shown in FIGS. 10A (CD56bright cells) and 10B (CD56dim cells). STAT5 phosphorylation was evaluated as previously described for assessing IL-15 signaling activity of the long acting IL-15 receptor agonists.
# A second study was conducted to investigate/compare the pStat5 response of human PBMCs obtained from two donors (CD3, CD4, CD8, CD56 (bright and dim) and CD4-Tregs (CD25+Foxp3+)) to IL-15, Conjugate 1 and Conjugate 5. An […] dose response was examined using a 10-fold dilution with a dose range of 0.001-10000 ng/ml and a 20 min stimulation. Each of the test articles was diluted in IL-15 buffer+0.1% BSA.
# Assessment of in vitro activity of Conjugate 1 was carried out by investigating NK and CD8 JAK/STAT signaling after treatment of human PBMCs with IL-15 or Conjugate 1 at a dose range of 0.001-10000 ng/ml. STAT5 phosphorylation was assessed as previously described.
# [1] = Single dose PK study in non-human primates (plasma concentration); assay type: in vivo; settings: cynomolgus monkeys, single i.v. 50 μg/kg
# Experimental: Cynomolgus monkeys (n=2, 1 male and 1 female), were administered a single intravenous dose of Conjugate 1 at 10, 50 and 100 μg/kg. IL-15 was administered as a single intravenous dose at 50 μg/kg as a control. Plasma concentration of drug was determined at the indicated time points post injection (0.03, 0.25, 1, 4, 12, 24, 48, 72, 96, 120, 144, 168 hours).
# [2] = Single dose PK study in mice (plasma concentration)
# Experimental: C57BL/6 mice (n=3/group) were administered a single intravenous dose of IL-15 (control) at 0.3 mg/kg) or of Conjugate 2 at a dose of 0.3 mg/kg. Following administration, blood samples were collected at various time points post administration (24 hours, 48 hours, 78 hours, 96 hours). […] Finally, at each time point, plasma concentration of drug was determined.
# For PK analysis, Conjugate 1 was administered as a single intravenous dose at 0.3 mg/kg in balb/c mice (n=3). Following administration, mice were humanely sacrificed and plasma was collected 24, 48, 72, 96, 120 and 144 hours post treatment. From a separate study, mice were administered a single intravenous dose of IL-15 (0.5 mg/kg). Samples from these mice were collected at the indicated time points within 6 hours of treatment.
# Balb/c mice (n=3/group) were administered a single intravenous dose of IL-15 (500 ug/kg) or of Conjugate 1 at 10, 30, 100, 300 and 1000 μg/kg. Blood samples were collected at the indicated time points post administration (conjugate 1:24, 48, 72, 96, 120, 144, 240 hours; IL-15 control: 0.03, 0.08, 0.25, 0.5, 1, 2, 4, 6, 8, hours) and plasma concentration of drug was determined.
# IL-15Rα, sequence (Q13261 31-205 limits assumed): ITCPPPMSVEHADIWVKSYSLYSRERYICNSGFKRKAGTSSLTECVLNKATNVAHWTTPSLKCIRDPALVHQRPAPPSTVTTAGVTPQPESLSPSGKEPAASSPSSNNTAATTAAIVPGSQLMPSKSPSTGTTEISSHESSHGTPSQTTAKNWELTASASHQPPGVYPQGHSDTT
substance,measurement,setting,value
"IL-15: recombinant human IL-15 from E. coli, SEQ ID NO: 1, non-glycosylated, 12.9 kDa; unconjugated comparator",ka,"IL-15Rα; Table 2A, IL-15Rα:Fc captured by anti-Fc",578000 M⁻¹ s⁻¹
same,dissociation rate constant (kd),"IL-15Rα; Table 2A, dissociation rate",0.000149 s⁻¹
same,pKd,"IL-15Rα; Table 2A, read-out: KD",9.59
same,pKd,"IL-15Rα; Table 2B, read-out: IL-15Rα KD",9.59
same,EC50 (ng/ml)-% pSTAT5 CD3 donor1,"human PBMCs; CD3 cells, donor1, 20 min stimulation",0.17 ng/ml
same,EC50 (ng/ml)-% pSTAT5 CD3 donor2,"human PBMCs; CD3 cells, donor2, 20 min stimulation",0.17 ng/ml
same,EC50 (ng/ml)-% pSTAT5 Treg donor1,"human PBMCs; CD4-Treg cells, donor1",0.08 ng/ml
same,EC50 (ng/ml)-% pSTAT5 Treg donor2,"human PBMCs; CD4-Treg cells, donor2",0.084 ng/ml
same,EC50 (ng/ml)-% pSTAT5 CD4 donor1,"human PBMCs; CD4 cells, donor1",0.177 ng/ml
same,EC50 (ng/ml)-% pSTAT5 CD4 donor2,"human PBMCs; CD4 cells, donor2",0.20 ng/ml
same,EC50 (ng/ml)-% pSTAT5 CD8 donor1,"human PBMCs; CD8 cells, donor1",0.17 ng/ml
same,EC50 (ng/ml)-% pSTAT5 CD8 donor2,"human PBMCs; CD8 cells, donor2",0.15 ng/ml
same,EC50 (ng/ml)-% pSTAT5 CD56bright donor1,"human PBMCs; CD56bright cells, donor1",0.11 ng/ml
same,EC50 (ng/ml)-% pSTAT5 CD56bright donor2,"human PBMCs; CD56bright cells, donor2",0.19 ng/ml
same,EC50 (ng/ml)-% pSTAT5 CD56dim donor1,"human PBMCs; CD56dim cells, donor1",0.26 ng/ml
same,EC50 (ng/ml)-% pSTAT5 CD56dim donor2,"human PBMCs; CD56dim cells, donor2",0.54 ng/ml
same,EC50 (ng/ml) pSTAT5 CD56bright NK,"human PBMCs; Table 3, CD56bright NK cells",0.4 ng/ml
same,EC50 (ng/ml)-% pSTAT5 CD3,"human PBMCs; Table 7 Summary Table, CD3",0.17 ng/ml
same,EC50 (ng/ml)-% pSTAT5 CD4,"human PBMCs; Table 7 Summary Table, CD4",0.177 ng/ml
same,EC50 (ng/ml)-% pSTAT5 CD8,"human PBMCs; Table 7 Summary Table, CD8",0.17 ng/ml
same,EC50 (ng/ml)-% pSTAT5 CD56bright,"human PBMCs; Table 7 Summary Table, CD56bright",0.11 ng/ml
same,EC50 (ng/ml)-% pSTAT5 CD56dim,"human PBMCs; Table 7 Summary Table, CD56dim",0.26 ng/ml
same,EC50 (ng/ml)-% pSTAT5 Treg,"human PBMCs; Table 7 Summary Table, Treg",0.08 ng/ml
same,EC50 (ng/ml)-MFI CD3 donor1,"human PBMCs; pSTAT5 MFI, CD3 cells, donor1",4.0 ng/mL
same,EC50 (ng/ml)-MFI CD3 donor2,"human PBMCs; pSTAT5 MFI, CD3 cells, donor2",5.22 ng/mL
same,EC50 (ng/ml)-MFI Treg donor1,"human PBMCs; pSTAT5 MFI, CD4-Treg cells, donor1",0.6 ng/mL
same,EC50 (ng/ml)-MFI Treg donor2,"human PBMCs; pSTAT5 MFI, CD4-Treg cells, donor2",0.71 ng/mL
same,EC50 (ng/ml)-MFI CD4 donor1,"human PBMCs; pSTAT5 MFI, CD4 cells, donor1",3.6 ng/mL
same,EC50 (ng/ml)-MFI CD4 donor2,"human PBMCs; pSTAT5 MFI, CD4 cells, donor2",5.8 ng/mL
same,EC50 (ng/ml)-MFI CD8 donor1,"human PBMCs; pSTAT5 MFI, CD8 cells, donor1",3.5 ng/mL
same,EC50 (ng/ml)-MFI CD8 donor2,"human PBMCs; pSTAT5 MFI, CD8 cells, donor2",5.5 ng/mL
same,EC50 (ng/ml)-MFI CD56bright donor1,"human PBMCs; pSTAT5 MFI, CD56bright cells, donor1",0.49 ng/mL
same,EC50 (ng/ml)-MFI CD56bright donor2,"human PBMCs; pSTAT5 MFI, CD56bright cells, donor2",0.96 ng/mL
same,EC50 (ng/ml)-MFI CD56dim donor1,"human PBMCs; pSTAT5 MFI, CD56dim cells, donor1",1.4 ng/mL
same,EC50 (ng/ml)-MFI CD56dim donor2,"human PBMCs; pSTAT5 MFI, CD56dim cells, donor2",3.7 ng/mL
same,plasma levels following administration,[1],rapidly cleared from the plasma
same,half-life,"[2]; balb/c mice, single i.v., Conjugate 1 0.3 mg/kg, IL-15 0.5 mg/kg (Example 16)",less than 1 hours
same,plasma levels following administration,"[2]; mice, single i.v. dose",rapid drop in plasma levels; also recorded: rapidly cleared
